# Laboratory results as given in article PMC7281298, “Exploring Kinase Inhibition Properties of 9H-pyrimido[5,4-b]- and [4,5-b]indol-4-amine Derivatives” (Pharmaceuticals, 2020).
# pIC50: −log10 of the molar value. Where two headings read alike, the source gives them in different places.
# Key:
# CDK5/p25 = CDK5/p25 (Homo sapiens, UniProt Q00535); test: Kinase inhibition assay, CDK5/p25; format: biochemical; details: for pIC50: average of triplicate determination (<10% variation), read-out: Kinase inhibitory potency (IC50) CDK5/p25
# CDK5/p25, sequence (Q00535 whole entry, species assumed): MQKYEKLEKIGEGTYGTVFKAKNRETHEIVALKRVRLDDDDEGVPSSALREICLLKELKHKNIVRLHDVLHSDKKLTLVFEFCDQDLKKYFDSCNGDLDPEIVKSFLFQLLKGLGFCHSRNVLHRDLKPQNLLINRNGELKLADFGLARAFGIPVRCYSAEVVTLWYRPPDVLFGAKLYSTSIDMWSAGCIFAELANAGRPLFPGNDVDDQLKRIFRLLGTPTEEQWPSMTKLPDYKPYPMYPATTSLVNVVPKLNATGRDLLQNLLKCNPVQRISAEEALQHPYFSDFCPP
# CDK5/p25, sequence (Q15078 99-307 partner limits assumed, species assumed): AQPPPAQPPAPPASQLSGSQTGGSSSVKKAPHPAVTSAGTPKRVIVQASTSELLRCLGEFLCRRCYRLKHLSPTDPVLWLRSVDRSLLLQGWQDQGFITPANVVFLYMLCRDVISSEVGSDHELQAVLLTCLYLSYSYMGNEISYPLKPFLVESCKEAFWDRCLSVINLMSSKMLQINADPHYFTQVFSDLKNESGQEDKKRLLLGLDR
# Protocol: (§1) The inhibitory potency of the synthesized pyrimido[4,5-b]indol-4-amines and pyrimido[5,4-b]indol-4-amines towards CDK5/p25, CK1δ/ε, DYRK1A, and GSK-3α/β was investigated according preceding procedures.
# (§2) Buffers, kinase preparations, and assays were performed as described in ref. [12, 13, 14] according methods initially published in previous works.
# CK1δ/ε [1] = test: Kinase inhibition assay, CK1δ/ε; format: biochemical; details: for pIC50: average of triplicate determination (<10% variation), read-out: Kinase inhibitory potency (IC50) CK1δ/ε
# Protocol: as §1, §2
# DYRK1A [2] = target: T1, DYRK1A (Homo sapiens, UniProt Q13627); test: Kinase inhibition assay, DYRK1A; format: biochemical; details: for pIC50: read-out: Kinase inhibitory potency (IC50) DYRK1A
# Protocol: as §1, §2
# GSK-3α/β = test: Kinase inhibition assay, GSK-3α/β; format: biochemical; details: for pIC50: average of triplicate determination (<10% variation), read-out: Kinase inhibitory potency (IC50) GSK-3α/β
# Protocol: as §1, §2
# CK1δ/ε [3] = system: CK1δ/ε; design: method as in PMID 23237976, PMID 23124214, PMID 25549552; details: already published data, cited from earlier work; for pIC50: thieno[2,3-d]pyrimidin-4-amine congeners
# DYRK1A [4] = target: T1, DYRK1A; design: method as in PMID 23237976, PMID 23124214, PMID 25549552; details: thieno[2,3-d]pyrimidin-4-amine congeners, already published data; cited from earlier work
# [5] = average of triplicate determination (<10% variation)
Compound,pIC50 (CDK5/p25),pIC50 (CK1δ/ε [1]),pIC50 (DYRK1A [2]; [5]),pIC50 (GSK-3α/β),Inhibitory activity against DYRK1A (in words) (DYRK1A [2]),Inhibitory activity against CK1δ/ε (in words) (CK1δ/ε [1]),Inhibitory activity against CDK5/p25 (in words) (CDK5/p25),Inhibitory activity against GSK3α/β (in words) (GSK-3α/β),pIC50 (DYRK1A [2]),pIC50 (CK1δ/ε [3]),pIC50 (DYRK1A [4]),Activity against CK1 (in words) (CK1δ/ε [3])
"Nc1ncnc2c1[nH]c1ccccc12 [Compound 1a, 5H-Pyrimido[5,4-b]indol-4-amine]",< 5.00,5.70,5.66,< 5.00,–,–,–,–,–,–,–,–
"Cn1c2ccccc2c2ncnc(N)c21 [Compound 1b, 5-Methyl-5H-pyrimido[5,4-b]indol-4-amine]",< 5.00,5.40,5.24,< 5.00,–,–,–,–,–,–,–,–
"CCn1c2ccccc2c2ncnc(N)c21 [Compound 1c, 5-Ethyl-5H-pyrimido[5,4-b]indol-4-amine]",< 5.00,5.55,5.39,< 5.00,–,–,–,–,–,–,–,–
"Nc1ncnc2c3ccccc3n(Cc3ccccc3)c12 [Compound 1d, 5-Benzyl-5H-pyrimido[5,4-b]indol-4-amine]",< 5.00,6.22,< 5.00,< 5.00,lack of activity,–,–,–,–,–,–,–
"Nc1ncnc2c1[nH]c1ccc([N+](=O)[O-])cc12 [Compound 2a, 8-Nitro-5H-pyrimido[5,4-b]indol-4-amine]",< 5.00,< 5.00,5.12,< 5.00,low micromolar activity,no inhibition,–,–,–,–,–,–
"Cn1c2ccc([N+](=O)[O-])cc2c2ncnc(N)c21 [Compound 2b, 5-Methyl-8-nitro-5H-pyrimido[5,4-b]indol-4-amine]",< 5.00,< 5.00,< 5.00,< 5.00,–,–,–,–,–,–,–,–
"CCn1c2ccc([N+](=O)[O-])cc2c2ncnc(N)c21 [Compound 2c, 5-Ethyl-8-nitro-5H-pyrimido[5,4-b]indol-4-amine]",< 5.00,< 5.00,< 5.00,< 5.00,–,–,–,–,–,–,–,–
"Nc1ncnc2c3cc([N+](=O)[O-])ccc3n(Cc3ccccc3)c12 [Compound 2d, 5-Benzyl-8-nitro-5H-pyrimido[5,4-b]indol-4-amine]",< 5.00,< 5.00,< 5.00,< 5.00,–,–,–,–,–,–,–,–
"Nc1ncnc2[nH]c3ccccc3c12 [Compound 3a, 9H-Pyrimido[4,5-b]indol-4-amine]",5.22,6.15,5.51,< 5.00,–,–,–,–,–,–,–,–
"Cn1c2ccccc2c2c(N)ncnc21 [Compound 3b, 9-Methyl-9H-pyrimido[4,5-b]indol-4-amine]",< 5.00,5.60,< 5.00,< 5.00,–,–,–,–,–,–,–,–
"CCn1c2ccccc2c2c(N)ncnc21 [Compound 3c, 9-Ethyl-9H-pyrimido[4,5-b]indol-4-amine]",< 5.00,5.80,5.01,< 5.00,–,–,–,–,–,–,–,–
"Nc1ncnc2c1c1ccccc1n2Cc1ccccc1 [Compound 3d, 9-Benzyl-9H-pyrimido[4,5-b]indol-4-amine]",< 5.00,5.57,< 5.00,< 5.00,–,–,–,–,–,–,–,–
"Nc1ncnc2[nH]c3cc([N+](=O)[O-])ccc3c12 [Compound 4a, 7-Nitro-9H-pyrimido[4,5-b]indol-4-amine]",< 5.00,5.46,5.12,< 5.00,–,–,–,–,–,–,–,–
"Cn1c2cc([N+](=O)[O-])ccc2c2c(N)ncnc21 [Compound 4b, 9-Methyl-7-nitro-9H-pyrimido[4,5-b]indol-4-amine]",< 5.00,5.55,< 5.00,< 5.00,–,–,–,–,–,–,–,–
"CCn1c2cc([N+](=O)[O-])ccc2c2c(N)ncnc21 [Compound 4c, 9-Ethyl-7-nitro-9H-pyrimido[4,5-b]indol-4-amine]",< 5.00,5.80,5.23,< 5.00,–,–,–,–,–,–,–,–
"Nc1ncnc2c1c1ccc([N+](=O)[O-])cc1n2Cc1ccccc1 [Compound 4d, 9-Benzyl-7-nitro-9H-pyrimido[4,5-b]indol-4-amine]",< 5.00,< 5.00,< 5.00,< 5.00,–,–,–,–,–,–,–,–
"COc1ccc2c(c1)[nH]c1c(C)nccc12 [Compound 11a, harmine, reference compound]",–,5.82,–,< 5.00,–,–,definitely inactive,definitely inactive,–,–,–,–
"COc1ccc2c3ccnc(C)c3n(C)c2c1 [Compound 11b, 7-Methoxy-1,9-dimethyl-β-carboline]",< 5.00,< 5.00,–,< 5.00,–,totally inactive,totally inactive,totally inactive,–,–,–,–
"CCn1c2cc(OC)ccc2c2ccnc(C)c21 [Compound 11c, 9-Ethyl-7-methoxy-1-methyl-β-carboline]",< 5.00,< 5.00,–,< 5.00,–,totally inactive,totally inactive,totally inactive,7.43,–,–,–
"COc1ccc2c3ccnc(C)c3n(Cc3ccccc3)c2c1 [Compound 11d, 9-Benzyl-7-methoxy-1-methyl-β-carboline]",< 5.00,< 5.00,7.23,< 5.00,–,totally inactive,totally inactive,totally inactive,–,–,–,–
Nc1ncnc2c1sc1ccccc12 [Compound 12],–,–,–,–,–,–,–,–,–,6.10,4.48,–
Nc1ncnc2c1sc1nccnc12 [Compound 13],–,–,–,–,–,–,–,–,–,5.62,< 5.00,micromolar and submicromolar activity
Nc1ncnc2c1sc1cccnc12 [Compound 14],–,–,–,–,–,–,–,–,–,5.74,5.22,micromolar and submicromolar activity
Nc1ncnc2c1sc1ncccc12 [Compound 15],–,–,–,–,–,–,–,–,–,7.51,< 5.00,micromolar and submicromolar activity
